How the values were obtained:
polyQ79 = polyQ79 aggregate size in HEK293T cells (Coulter counter); format: cell-based; conditions: 20 nM AZD6244, 100 nM Bortezomib, or both
Protocol: (§1) FIGS. 5A-Y show MEK and proteasome inhibition provoke protein aggregation and amyloidogenesis. (A-B) WM115 cells treated with 20 nM AZD6244, 100 nM Bortezomib, or both for 24 hr were stained with Lys48-specific ubiquitin antibodies. Arrowheads mark ubiquitin-positive aggregates. Scale bar: 10 μm. Amounts of aggregates per cell were quantitated using ImageJ (median, n≥100, ANOVA). (C-F) Following transfection with polyQ79 plasmids alone or with both polyQ79 and HSF1^S326D plasmids for one day, HEK293T cells were treated with inhibitors as described in (A-B). Cells were either analyzed for aggregate size or stained with 10 μM ThT. (G) Treated tumor cell lines were stained with 10 μM ThT. Geometric means were used to calculate fold changes in ThT fluorescence intensity and the log 2(FC) values were presented as a heat map. (H) HEK293T cells were transfected with LacZ or polyQ79 plasmid. Following treatments, AOs were quantitated by ELISA using A11 antibodies (mean±SD, n=3, ANOVA). (I) Intrinsic AOs were detected in human tumor cell lines (mean±SD, n=3, ANOVA). […] Amyloids were quantitated by ELISA (mean±SD, n=3, Student's t-test). […] AF formation was monitored by ThT binding (mean±SD, n=3, ANOVA). […] Amyloids were quantitated (mean±SD, n=3, Student's t-test). […] Viable cells were quantitated by CellTiter® blue (mean±SD, n=6, Student's t-test). […] Viable cells were quantitated (mean±SD, n=6, ANOVA). […]

Aβ1-42 peptides = assay: In vitro amyloid seeding of Aβ1-42 with lysates of treated A2058 cells (ThT binding, TEM); format: cell-based, human
Protocol: as §1, with “(H) HEK293T cells were transfected with LacZ or polyQ79 plasmid.” left out
(§2) This figure is related to FIG. 5. […] (C) Quantitation of protein aggregate size. […]

amyloid oligomers (AOs) = assay: Amyloid oligomer ELISA (A11) in murine cells (primary MEFs, NIH3T3); format: cell-based, mouse; conditions: different concentrations of Bortezomib, 24 hrs
Protocol: as §1, with “(H) HEK293T cells were transfected with LacZ or polyQ79 plasmid.” left out
as §2

CC(C)C[C@H](NC(=O)[C@H](Cc1ccccc1)NC(=O)c1cnccn1)B(O)O [Bortezomib, bortezomib]
polyQ79 aggregate size (polyQ79): enhanced | amyloid seeding efficacy of cell lysates (Aβ1-42 peptides; 20 μM Aβ1-42, ThT binding): augmented | fibril morphology after seeding (transmission electron microscopy) (Aβ1-42 peptides; 37° C., 2 days): mature fibrils | endogenous amyloid oligomers in NIH3T3 cells (amyloid oligomers (AOs)): capable of inducing amyloidogenesis

Source: US20180369203A1, “METHODS OF TREATING CANCER BY ADMINISTERING A MEK INHIBITOR IN COMBINATION WITH A PROTEASOME INHIBITOR” (The Jackson Laboratory, priority 2015, published 2018)
